# In PMC11189516, “Structure-guided conversion from an anaplastic lymphoma kinase inhibitor into Plasmodium lysyl-tRNA synthetase selective inhibitors” (Communications Biology, 2024):
# Values joined by “and” are separate entries in the source; they are usually repeats but may differ in a detail not shown here. Equal values may be shown once.
# What was measured:
# PfLysRS [1] = biological target: T1, PfLysRS (Plasmodium falciparum, UniProt Q8IDJ8); experiment: Thermal shift assay; format: binding; conditions: for ΔTm of PfLysRS / ΔTm at 200 µM: in the presence of L-lysine; for Tm of PfLysRS, Average / Tm of PfLysRS, single repeat: in °C (unit assumed)
# T1 construct: PfLysRS (77–583) was constructed in the vector pET20b, with a C-terminal 6×His tag; 6xHis (C); made in house; host or cells: E. coli BL21 (DE3)
# Method: PfLysRS protein was prepared at 10 μM concentration in a buffer containing 20 mM Tris pH 8.0, 200 mM NaCl, 500 μM L-lysine, and 200 μM Compound. Aliquots (18 µL) were added to a 96-well PCR plate and incubated at ambient temperature for 10 min. SYPRO Orange dye (Sigma) was diluted in the assay buffer containing 20 mM Tris pH 8.0 and 200 mM NaCl to a 40× concentration, and 2 µL of the 40× dye solution was added to the PCR plate to bring the final assay volume to 20 µL. After complete mixing, the final solutions were heated from 25 to 90 °C at a rate of 0.015 °C per sec, and fluorescence signals were monitored by QuantStudio 3 (Applied Biosystems by Thermo Fisher Scientific).
# [2] = tested on: erythrocytic-stage P. falciparum 3D7 parasites; experiment: In vitro Plasmodium growth assay; format: cell-based, Plasmodium falciparum; conditions: for HillSlope (best-fit value): Plasmodium falciparum 3D7; for LogIC50 (best-fit value): Plasmodium falciparum 3D7, log of nM; for IC50: Plasmodium falciparum 3D7, source data, read-out: IC50 (best-fit value); for EC50: Plasmodium falciparum, 3D7, 72 h
# Method: Parasites were cultured in human O+ erythrocytes according to standard procedures. To prepare the >80% ring stage parasites, asynchronous cultures of parasites were pretreated with 5% sorbitol, and P. falciparum strain 3D7 at the mid-ring stage (6–10 h post-invasion) was used to test antimalarial effects in 96-well plates. Parasites were incubated in a 96-well plate with compound containing 1% parasitemia and, 2% hematocrit for a total volume of 200 μL. […] A relevant DMSO concentration was used as a negative control, and cultured erythrocytes without Plasmodium served as a positive control. The parasites were allowed to grow for 72 h at 37 °C with 5% CO2, 5% O2, and 90% N2. After 72 h, 100 μL of lysis buffer (0.12 mg·mL^−1 Saponin, 0.12% Triton X-100, 30 mM Tris-HCl pH 8.0, and 7.5 mM EDTA) with 5× SYBR Green I (Invitrogen; supplied in 10000× concentration) was added to each well of the plate. The plates were then incubated for 2 h in the dark prior to reading the fluorescence signal at 485 nm excitation and 535 nm emission. The percentage of inhibition was calculated by (NC-fluorescence) × 100/(NC-PC).
# PfLysRS [3] = biological target: T1, PfLysRS; experiment: ATP hydrolysis assay (Kinase-Glo) on PfLysRS; format: biochemical; conditions: read-out: IC50 against PfLysRS
# Method: (§1) The ATP hydrolysis assays were based on Kinase-Glo luminescent Kit (Promega). The experiment was carried out in Corning 384-well white flat bottom microplates. The buffer in the reaction contains 25 mM Hepes pH 7.4, 140 mM NaCl, 40 mM MgCl2, 30 mM KCl, 1 mM TCEP, 0.1 mg·mL^−1 BSA, and 0.004% Tween-20. The compounds were diluted to different concentrations with a 5-fold gradient.
# (§2) For LysRS assays, DMSO was added into negative control wells and L-lysine was removed in positive control wells. 100 nM LysRS in 2.5 μL Hepes buffer was mixed with compounds and incubated for 10 min. Then 5 μL substrate mixture (2 μM ATP, 10 μM L-lysine and 31 nM pyrophosphatase) was added to start the reaction at 37 °C and incubated for 6 h.
# (§3) When the reaction reaches the planned time, 10 μL diluted Kinase-Glo reagent (1/50 diluted with a buffer containing 50 mM Tris pH 7.5 and 5% glycerol) was added and incubated for 15 min. Luminescence was measured on the Magellan plate reader (Tecan) and nonlinear regression was performed with Prism (GraphPad).
# HsLysRS = biological target: T2, HsLysRS (Homo sapiens, UniProt Q15046); experiment: ATP hydrolysis assay (Kinase-Glo) on HsLysRS; format: biochemical; conditions: read-out: IC50 against HsLysRS
# T2 construct: HsLysRS (70–581) was constructed in the vector pET20b with a C-terminal 6×His tag; 6xHis (C); made in house; host or cells: E. coli (pET20b; 'purified similarly' to PfLysRS, which was expressed in BL21 (DE3))
# Method: as §1, §2, §3
# ALK = biological target: T3, ALK (Homo sapiens, UniProt Q9UM73); experiment: ATP hydrolysis assay (Kinase-Glo) on ALK; format: biochemical; conditions: read-out: IC50 against ALK
# T3 construct: The plasmid pCDNA3.1_8×His-tev-ALK (kinase domain, 1068–1410) was constructed; 8xHis (N); TEV site (N); made in house; host or cells: Expi293 cells (transient transfection)
# Method: as §1
# For ALK assays, DMSO was added into negative control wells. 100 nM ALK in 2.5 μL Hepes buffer was mixed with compounds and incubated for 10 min. Then 5 μL substrate (2 μM ATP) was added to start the reaction at 37 °C and incubated for 6 h.
# as §3
# [4] = P. falciparum 3D7, Log(Concentration)/nM 3.193, single repeats
# [5] = P. falciparum 3D7, Log(Concentration)/nM 3.496, single repeats
# [6] = P. falciparum 3D7, Log(Concentration)/nM 3.796, single repeats
# [7] = P. falciparum 3D7, Log(Concentration)/nM 4.097, single repeats
# [8] = P. falciparum 3D7, Log(Concentration)/nM 4.398, single repeats
# [9] = P. falciparum 3D7, Log(Concentration)/nM 4.699, single repeats
# [10] = P. falciparum 3D7, Log(Concentration)/nM 5.000, single repeats
# T2 sequence (Q15046 70-581): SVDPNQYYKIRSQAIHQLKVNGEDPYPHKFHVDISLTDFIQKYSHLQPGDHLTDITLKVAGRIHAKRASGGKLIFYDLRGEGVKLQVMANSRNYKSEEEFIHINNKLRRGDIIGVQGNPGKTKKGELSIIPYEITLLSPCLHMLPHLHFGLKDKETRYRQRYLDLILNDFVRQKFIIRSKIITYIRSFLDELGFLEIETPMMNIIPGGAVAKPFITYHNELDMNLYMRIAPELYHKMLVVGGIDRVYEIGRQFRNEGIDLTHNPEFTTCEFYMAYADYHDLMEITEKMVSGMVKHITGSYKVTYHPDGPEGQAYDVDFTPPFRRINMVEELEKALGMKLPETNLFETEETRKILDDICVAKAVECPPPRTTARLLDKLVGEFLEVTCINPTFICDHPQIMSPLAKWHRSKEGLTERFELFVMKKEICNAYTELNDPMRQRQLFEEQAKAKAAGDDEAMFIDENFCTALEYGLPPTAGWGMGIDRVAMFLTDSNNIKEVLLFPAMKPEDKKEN
# T1 sequence (Q8IDJ8 entry or part of it): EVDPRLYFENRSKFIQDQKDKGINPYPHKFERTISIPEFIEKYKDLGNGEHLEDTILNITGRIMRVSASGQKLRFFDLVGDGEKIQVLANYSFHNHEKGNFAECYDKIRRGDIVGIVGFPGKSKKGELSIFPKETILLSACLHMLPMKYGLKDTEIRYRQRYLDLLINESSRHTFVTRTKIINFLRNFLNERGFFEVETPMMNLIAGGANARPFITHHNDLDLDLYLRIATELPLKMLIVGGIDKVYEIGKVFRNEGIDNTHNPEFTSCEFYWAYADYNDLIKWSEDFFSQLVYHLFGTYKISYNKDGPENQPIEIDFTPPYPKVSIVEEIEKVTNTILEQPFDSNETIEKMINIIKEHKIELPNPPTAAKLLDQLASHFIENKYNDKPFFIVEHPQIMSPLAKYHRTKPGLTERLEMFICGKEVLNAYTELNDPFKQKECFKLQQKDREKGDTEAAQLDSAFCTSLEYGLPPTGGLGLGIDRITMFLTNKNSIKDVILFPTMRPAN
# T3 sequence (Q9UM73 1068-1410): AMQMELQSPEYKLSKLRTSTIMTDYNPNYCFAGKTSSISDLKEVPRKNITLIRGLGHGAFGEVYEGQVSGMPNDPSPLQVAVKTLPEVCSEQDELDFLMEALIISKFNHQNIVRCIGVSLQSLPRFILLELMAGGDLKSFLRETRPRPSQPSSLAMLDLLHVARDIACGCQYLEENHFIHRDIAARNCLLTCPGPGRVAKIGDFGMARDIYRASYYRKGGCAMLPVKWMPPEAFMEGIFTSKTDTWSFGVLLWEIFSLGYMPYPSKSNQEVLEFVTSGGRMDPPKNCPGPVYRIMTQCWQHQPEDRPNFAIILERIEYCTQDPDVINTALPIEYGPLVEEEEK
smiles,measurement,setting,value
COc1cc(N2CCC(N3CCN(C)CC3)CC2)ccc1Nc1ncnc(Nc2ccccc2C2C=CCCC2)n1 (stereo not drawn) [Compound 31],ΔTm of PfLysRS,PfLysRS [1],2.0 °C
COc1cc(N2CCC(N3CCN(C)CC3)CC2)ccc1Nc1ncnc(Nc2ccccc2C2CCCCC2)n1 [Compound 32],ΔTm of PfLysRS,PfLysRS [1],4.1 °C
COc1ccc(C(F)(F)F)cc1Nc1ncnc(Nc2ccccc2S(=O)(=O)C(C)C)n1 [Compound 33],ΔTm of PfLysRS,PfLysRS [1],-0.1 °C
COC(=O)c1ccc(OC)c(Nc2ncnc(Nc3ccccc3S(=O)(=O)C(C)C)n2)c1 [Compound 34],ΔTm at 200 µM,PfLysRS [1],7.9 °C
same,% Inhibition,"[2]; P. falciparum 3D7, Log(Concentration)/nM 2.290, single repeats",1.182% and -0.03693% and -1.145%
same,% Inhibition,"[2]; P. falciparum 3D7, Log(Concentration)/nM 2.592, single repeats",1.736% and -0.03693% and 4.616%
same,% Inhibition,[2]; [4],62.22% and 58.01% and 53.91%
same,% Inhibition,[2]; [5],92.69% and 87.92% and 85.93%
same,% Inhibition,[2]; [6],98.34% and 94.68% and 94.24%
same,% Inhibition,[2]; [7],98.78% and 97.23% and 96.34%
same,% Inhibition,[2]; [8],101.2% and 100.6% and 98.23%
same,% Inhibition,[2]; [9],99.67% and 99.22% and 96.9%
same,% Inhibition,[2]; [10],94.68% and 96.01% and 94.24%
same,HillSlope (best-fit value),[2],2.802
same,LogIC50 (best-fit value),[2],3.133
same,IC50,[2],1.36 µM
same,EC50,[2],1.36 ± 0.04 µM
COc1ccc(Nc2ncnc(Nc3ccccc3S(=O)(=O)C(C)C)n2)c(OC)c1 [Compound 35],ΔTm of PfLysRS,PfLysRS [1],6.4 °C
COc1ccc(OC)c(Nc2ncnc(Nc3ccccc3S(=O)(=O)CCNC(=O)[C@@H](N)CCCCN)n2)c1 [Compound 36K2],"Tm of PfLysRS, Average","PfLysRS [1]; +Lysine, sheet Figure 6B",50.650
same,"Tm of PfLysRS, single repeat","PfLysRS [1]; +Lysine, sheet Figure 6B",50.665 and 50.973 and 50.296
same,IC50,PfLysRS [3],0.365 µM
same,IC50,HsLysRS,31 µM
same,IC50,ALK,> 109 µM
COc1ccc(OC)c(Nc2ncnc(Nc3ccccc3S(=O)(=O)CCCCCNC(=O)[C@@H](N)CCCCN)n2)c1 [Compound 36K5],△Tm of PfLysRS,"PfLysRS [1]; +Lysine, sheet Figure 6B",10.740
same,"Tm of PfLysRS, Average","PfLysRS [1]; +Lysine, sheet Figure 6B",55.760
same,"Tm of PfLysRS, single repeat","PfLysRS [1]; +Lysine, sheet Figure 6B",55.867 and 55.929 and 55.806 and 55.437
same,IC50,PfLysRS [3],2.77 µM
same,IC50,HsLysRS,22 µM
same,IC50,ALK,> 66.8 µM
COc1cnc(OC)c(Nc2ncnc(Nc3ccccc3S(=O)(=O)C(C)C)n2)c1 [Compound 36a],ΔTm at 200 µM,PfLysRS [1],10.7 °C
same,IC50,HsLysRS,44 µM
same,% Inhibition,"[2]; P. falciparum 3D7, Log(Concentration)/nM 2.893, single repeats",14.91%
same,% Inhibition,[2]; [4],32.52% and 24.14%
same,% Inhibition,[2]; [5],30.61% and 34.32%
same,% Inhibition,[2]; [6],39.42% and 74.11%
same,% Inhibition,[2]; [7],57.98% and 94.48%
same,% Inhibition,[2]; [8],81.01% and 104.5%
same,% Inhibition,[2]; [9],93% and 107%
same,% Inhibition,[2]; [10],88.65% and 105.6%
same,HillSlope (best-fit value),[2],1.181
same,LogIC50 (best-fit value),[2],3.762
same,IC50,[2],5.78 µM
same,EC50,[2],5.78 ± 1.73 µM
COc1ccc(OC)c(Nc2cccc(Nc3ccccc3S(=O)(=O)C(C)C)n2)c1 [Compound 36b],ΔTm of PfLysRS,PfLysRS [1],0.1 °C
COc1ccc(OC)c(Nc2cncc(Nc3ccccc3S(=O)(=O)C(C)C)n2)c1 [Compound 36c],ΔTm of PfLysRS,PfLysRS [1],0 °C
